Data: patent US20020068367A1, “Linker and method for solid phase combinatorial synthesis” (priority 2000, published 2002)
Several values for one entry are separate records, joined by “and”; a condition that tells them apart may be missing. Identical values can stand only once.

Target: T1, fluorescein-streptavidin (Streptomyces avidinii, UniProt P22629)
T1 construct: purchased Calbiochem-Novabiochem Corp., La Jolla, Calif; 189734
Experiment: Fluorescence emission standard curve, streptavidin-fluorescein (evaluation of linker 3)
Conditions: for Fluorescence emission (standard curve): replicates
Excerpt: FIG. 8 is a plot of data from Table 8, derived from evaluation of linker 3;

T1 sequence (P22629 25-183): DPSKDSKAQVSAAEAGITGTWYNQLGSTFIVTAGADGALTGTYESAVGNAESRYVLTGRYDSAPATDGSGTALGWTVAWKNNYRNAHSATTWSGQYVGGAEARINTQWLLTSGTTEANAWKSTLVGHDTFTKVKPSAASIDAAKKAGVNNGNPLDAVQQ

O=C(CCCCCNC(=O)CCCCCNC(=O)CCCCC1SCC2NC(=O)NC21)NCCCCCNC(=O)CCCCCNC(=O)CCCCC1SCC2NC(=O)NC21 (stereo not shown) [Linker 3]
Fluorescence emission (standard curve), mean of Columns 1-3 ([ST/FL] 7.4 pmol): 150.37
Fluorescence emission (standard curve), sum of Columns 1-2 ([ST/FL] 7.4 pmol): 283.8
Fluorescence emission (standard curve), sum of Columns 1-3 ([ST/FL] 7.4 pmol): 451.1
Fluorescence emission (standard curve) ([ST/FL] 7.4 pmol): 112.81 and 170.99 and 167.3
Fluorescence emission (standard curve), mean of Columns 1-3 ([ST/FL] 11.0 pmol): 245.76
Fluorescence emission (standard curve), sum of Columns 1-2 ([ST/FL] 11.0 pmol): 498.27
Fluorescence emission (standard curve), sum of Columns 1-3 ([ST/FL] 11.0 pmol): 737.28
Fluorescence emission (standard curve) ([ST/FL] 11.0 pmol): 270.54 and 227.73 and 239.01
Fluorescence emission (standard curve), mean of Columns 1-3 ([ST/FL] 15.0 pmol): 281.62
Fluorescence emission (standard curve), sum of Columns 1-2 ([ST/FL] 15.0 pmol): 566.42
Fluorescence emission (standard curve), sum of Columns 1-3 ([ST/FL] 15.0 pmol): 844.85
Fluorescence emission (standard curve) ([ST/FL] 15.0 pmol): 307.82 and 258.6 and 278.43
Fluorescence emission (standard curve), mean of Columns 1-3 ([ST/FL] 18.0 pmol): 311.00
Fluorescence emission (standard curve), sum of Columns 1-2 ([ST/FL] 18.0 pmol): 633.01
Fluorescence emission (standard curve), sum of Columns 1-3 ([ST/FL] 18.0 pmol): 933.0
Fluorescence emission (standard curve) ([ST/FL] 18.0 pmol): 361.66 and 271.35 and 299.99
Fluorescence emission (standard curve), mean of Columns 1-3 ([ST/FL] 22.0 pmol): 350.48
Fluorescence emission (standard curve), sum of Columns 1-2 ([ST/FL] 22.0 pmol): 723.72
Fluorescence emission (standard curve), sum of Columns 1-3 ([ST/FL] 22.0 pmol): 1051.4
Fluorescence emission (standard curve) ([ST/FL] 22.0 pmol): 363.91 and 359.81 and 327.71
Fluorescence emission (standard curve), mean of Columns 1-3 ([ST/FL] 26.0 pmol): 461.85
Fluorescence emission (standard curve), sum of Columns 1-2 ([ST/FL] 26.0 pmol): 944.08
Fluorescence emission (standard curve), sum of Columns 1-3 ([ST/FL] 26.0 pmol): 1385.6
Fluorescence emission (standard curve) ([ST/FL] 26.0 pmol): 496.71 and 447.37 and 441.48
Fluorescence emission (standard curve), mean of Columns 1-3 ([ST/FL] 29.0 pmol): 472.31
Fluorescence emission (standard curve), sum of Columns 1-2 ([ST/FL] 29.0 pmol): 1001.7
Fluorescence emission (standard curve), sum of Columns 1-3 ([ST/FL] 29.0 pmol): 1416.9
Fluorescence emission (standard curve) ([ST/FL] 29.0 pmol): 495.93 and 505.81 and 415.18
Fluorescence emission (standard curve), mean of Columns 1-3 ([ST/FL] 36.0 pmol): 567.49
Fluorescence emission (standard curve), sum of Columns 1-2 ([ST/FL] 36.0 pmol): 1141.1
Fluorescence emission (standard curve), sum of Columns 1-3 ([ST/FL] 36.0 pmol): 1702.5
Fluorescence emission (standard curve) ([ST/FL] 36.0 pmol): 569.16 and 571.94 and 561.36
Fluorescence emission (standard curve), mean of Columns 1-3 ([ST/FL] 45.0 pmol): 697.34
Fluorescence emission (standard curve), sum of Columns 1-2 ([ST/FL] 45.0 pmol): 1374.6
Fluorescence emission (standard curve), sum of Columns 1-3 ([ST/FL] 45.0 pmol): 2092.0
Fluorescence emission (standard curve) ([ST/FL] 45.0 pmol): 688.65 and 685.98 and 717.4
Fluorescence emission (standard curve), mean of Columns 1-3 ([ST/FL] 60.0 pmol): 847.26
Fluorescence emission (standard curve), sum of Columns 1-2 ([ST/FL] 60.0 pmol): 1651.9
Fluorescence emission (standard curve), sum of Columns 1-3 ([ST/FL] 60.0 pmol): 2541.8
Fluorescence emission (standard curve) ([ST/FL] 60.0 pmol): 837.57 and 816.34 and 889.88
